These results are taken from patent publication US20140309172A1, “ICE INHIBITING COMPOUNDS AND USES THEREOF” (priority 2010, published 2014).

Data set [1] in a line: Preliminary tests of blood-brain barrier penetration in animals. Type of data set: in vivo.
Data set [2] has as its system M17 cells overexpressing alpha-synuclein. In words: Cell viability of M17 cells overexpressing alpha-synuclein (LIVE/DEAD assay). Type of data set: cell-based, human. The text has this: Humans have 28 calpain and caspase isozymes—a large but not impossible number to test. RNAi was used to knock down each of these in turn in a neuronal cell culture model of PD. It is a neuroblastoma cell line (BE(2)-M17) carrying a wild-type α-synuclein overexpressing vector. BE(2)-M17 is a clone of the SK-N-BE(2) cell line that was established in November of 1972 from a bone marrow biopsy taken from a child with neuroblastoma. Synuclein on its own is not toxic to these cells, but it is toxic when combined with an oxidative stress agent such as rotenone or menadione. Greater than 90% reduction of mRNA levels for each of the 29 protease genes was routinely achieved, and greater than 50% reduction in protein levels (typically, about 70% reduction) was routinely achieved.
A cell viability assay was performed using LIVE/DEAD (molecular probes) assay according to the manufacture instructions. As summarized in FIG. 10, both RNAi knockdown of caspase-1/ICE and treatment with the caspase-1/ICE inhibitor block synuclein fragment formation in nerve cells and should inhibit synuclein aggregation in neuronal cells derived from one or more mouse models of PD.

The test system of data set [3] is M17 cells carrying empty pcDNA3 vector. Nature of the data set: Cell viability of M17 cells with pcDNA3 empty vector in the presence of menadione. It counts as cell-based, human. The settings on record: low concentrations of menadione, FIG. 8.

Consider `CCO[C@@H]1OC(=O)C[C@@H]1NC(=O)[C@@H]1CCCN1C(=O)[C@@H](NC(=O)c1ccc(N)c(Cl)c1)C(C)(C)C` [VX-765], for which the BBB penetration entry in data set [1] was “low”. The “rescue from alpha-synuclein-induced toxicity (cell viability)” value in data set [2] (M17 cells overexpressing alpha-synuclein, FIG. 10) is listed as “rescued”. On to `CC1=CC(=O)c2ccccc2C1=O` [menadione], for which, in data set [2] (low concentrations of menadione, FIG. 8), the “toxicity to M17 cells overexpressing a-synuclein” value was “toxic”. In data set [3], the “toxicity to M17 cells carrying empty pcDNA3 vector” value is “not toxic”.

For `CC(C)(C)[C@H](NC(=O)c1ccc(N)c(Cl)c1)C(=O)N1CCC[C@H]1C(=O)N[C@H](C#N)CC(=O)O` [NCGC00185682], the BBB penetration entry in data set [1] is “low”.
